# Assays:
# Enterococcus faecium = experiment: MIC, broth microdilution method (NCCLS M7-A5); assay type: cell-based; conditions: 568 Enterococcus faecium cl.isol.
SMILES,MIC (Staph. haemolyticus),MIC (Enterococcus faecium) [µg/mL]
C=C1NC(=O)C(Cc2c[nH]c3ccc(Cl)cc23)NC(=O)C(NC(=O)C(=CC)NC(=O)C(N)C(C)C)CSCC(C(=O)NC2C(=O)N3CCCC3C(=O)NCC(=O)NC(C(=O)NC(C(=O)NC3CSCC4NC(=O)C(CC(N)=O)NC(=O)C(CSCC5NC(=O)C(Cc6ccccc6)NC(=O)C(CS/C=C\NC5=O)NC4=O)NC(=O)CNC(=O)CNC(=O)CNC(=O)C4C(O)C(O)CN4C3=O)C(C)O)CSC2C)NC(=O)C(CC(C)C)NC1=O (stereo not drawn) [Factor A1],"0,25 µg/ml",
C=C1NC(=O)C(Cc2c[nH]c3ccc(Cl)cc23)NC(=O)C(NC(=O)C(=CC)NC(=O)C(N)C(C)C)CSCC(C(=O)NC2C(=O)N3CCCC3C(=O)NCC(=O)NC(C(=O)NC(C(=O)NC3CSCC4NC(=O)C(CC(N)=O)NC(=O)C(CSCC5NC(=O)C(Cc6ccccc6)NC(=O)C(CS/C=C\NC5=O)NC4=O)NC(=O)CNC(=O)CNC(=O)CNC(=O)C4CC(O)CN4C3=O)C(C)O)CSC2C)NC(=O)C(CC(C)C)NC1=O (stereo not drawn) [Factor A2],"0,25 µg/ml",2

# Source: patent EP1855705B1, “ANTIBIOTIC 107891, ITS FACTORS, PHARMACEUTICALLY ACCEPTABLE SALTS AND COMPOSITIONS, AND USE THEREOF” (Sentinella Pharmaceuticals, Inc. ("Sentinella"), priority 2005, dated 2006)
